Patent US5068332A, “Alkylidene analogs of 1'-aminospiro[isoquinoline-4(1H),3'-pyrrolidine]-1,2',3,5'(2H)-tetrones useful as aldose reductase inhibitors” (American Home Products Corporation, priority 1990, dated 1991)
Each block holds one molecule with its values, some of them ahead of it.

Legend:
aldose reductase = target: T1, aldose reductase (Bos taurus, UniProt P16116); experiment: aldose reductase inhibition in vitro (modified Hayman and Kinoshita procedure, enzyme from bovine lens); type: biochemical; details: 10^-5 M
T1 construct: preparation of the enxyme from bovine lens; from tissue; host or cells: bovine lens
Protocol: (§1) (c) The polyol determination was performed by a modification of the procedure of M. Kraml and L. Cosyns, Clin. Biochem., 2, 373 (1969). Only two minor reagent changes were made: (a) the rinsing mixture was an aqueous 5% (w/v) trichloroacetic acid solution and (b) the stock solution was prepared by dissolving 25 mg of dulcitol in 100 mL of an aqueous trichloroacetic acid solution. [N.B.: For each experiment the average value found in the tissue from rats fed the glucose diet was substracted from the individual values found in the corresponding tissue in galactose-fed rats to obtain the amount of polyol accumulated.] The aldose reductase inhibiting effects of the compounds of formula (I) were also tested by employing an in vitro testing procedure similar to that described by S. Hayman and J.H. Kinoshita, J. Biol. Chem., 240, 877 (1965). In the present case the procedure of Hayman and Kinoshita was modified in that the final chromatography step was omitted in the preparation of the enxyme from bovine lens.

dulcitol accumulation = experiment: lowering of galactitol (dulcitol) accumulation in tissues of galactosemic rats in vivo; parameters: species or system rat (male, Sprague-Dawley); details: in diet, 4 days; for % Lowering Galactitol Accumulation In Vivo, % (D): diaphragm; for % Lowering Galactitol Accumulation In Vivo, % (L): lens
Description: The aldose reductase inhibiting property of the compounds of this invention and the utilization of the compounds in preventing, diminishing and alleviating diabetic complications are demonstrable in experiments using galactosemic rats, see Dvornik et al., Science, 182, 1146 (1973). Such experiments are exemplified hereinbelow after the listing of the following general comments pertaining to these experiments:
(a) Four or more groups of six male rats, 50-70 g, Sprague-Dawley strain, were used. The first group, the control group, was fed a mixture of laboratory chow (rodent Laboratory Chow, Purina) and glucose at 20% (w/w %) concentration. An untreated galactosemic group was fed a similar diet in which galactose was substituted for glucose. The third group was fed a diet prepared by mixing a given amount of the test compound with the galactose containing diet. The concentration of galactose in the diet of the treated groups was the same as that for the untreated galactosemic group.
(b) After four days, the animals were killed by euthanization. Both the lens and sciatic nerve were removed, weighed and stored frozen for polyol determination.
as §1
The figures under L, N, and D represent the percentage decrease of dulcitol accumulation in the tissues of the lens, sciatic nerve, and diaphragm, respectively, for treated rats as compared to untreated rats.

SMILES: O=C1c2ccccc2C2(CC(=O)N(N=C3CCCC3)C2=O)C(=O)N1Cc1ccc(Br)cc1F (stereo not shown) [2-[(4-bromo-2-fluorophenyl)methyl]-1'-(cyclopentylideneamino)spiro[isoquinoline-4(1H),3'-pyrrolidine]-1,2',3,5'(2H)-tetrone]
inhibition at 10 µM (aldose reductase): 0% | % Lowering Galactitol Accumulation In Vivo, % (D) (dulcitol accumulation; 48 mg/kg/day): 95% | % Lowering Galactitol Accumulation In Vivo, % (L) (dulcitol accumulation; 48 mg/kg/day): 76%

SMILES: O=C1c2ccccc2C2(CC(=O)N(N=C3CCOCC3)C2=O)C(=O)N1Cc1ccc(Br)cc1F (stereo not shown) [2-[(4-bromo-2-fluorophenyl)methyl]-1'-[(tetrahydro-4H-pyran-4-ylidene)amino]spiro[isoquinoline-4(1H),3'-pyrrolidine]-1,2',3,5'(2H)-tetrone]
inhibition at 10 µM (aldose reductase): 36% | % Lowering Galactitol Accumulation In Vivo, % (D) (dulcitol accumulation; 56 mg/kg/day): 89% | % Lowering Galactitol Accumulation In Vivo, % (L) (dulcitol accumulation; 56 mg/kg/day): 44%

SMILES: CC(C)=NN1C(=O)CC2(C(=O)N(Cc3ccc(Br)cc3F)C(=O)c3ccc(F)cc32)C1=O (stereo not shown) [2-[(4-bromo-2-fluorophenyl)methyl]-6-fluoro-1'-[(1-methylethylidene)amino]spiro[isoquinoline-4(1H),3'-pyrrolidine]-1,2',3,5'(2H)-tetrone]
inhibition at 10 µM (aldose reductase): 5% | % Lowering Galactitol Accumulation In Vivo, % (D) (dulcitol accumulation; 1.1 mg/kg/day): 85% | % Lowering Galactitol Accumulation In Vivo, % (D) (dulcitol accumulation; 27 mg/kg/day): 97% | % Lowering Galactitol Accumulation In Vivo, % (L) (dulcitol accumulation; 27 mg/kg/day): 58%

Further lines, with some results ahead:

inhibition at 10 µM (aldose reductase): 0%
SMILES: CCC(CC)=NN1C(=O)CC2(C(=O)N(Cc3ccc(Br)cc3F)C(=O)c3ccccc32)C1=O (stereo not shown) [2-[(4-bromo-2-fluorophenyl)methyl]-1'-[(1-ethylpropylidene)amino]spiro[isoquinoline-4(1H),3'-pyrrolidine]-1,2',3,5'(2H)-tetrone]
% Lowering Galactitol Accumulation In Vivo, % (D) (dulcitol accumulation; 51 mg/kg/day): 93% | % Lowering Galactitol Accumulation In Vivo, % (L) (dulcitol accumulation; 51 mg/kg/day): 71%

inhibition at 10 µM (aldose reductase): 8%
SMILES: CC(C)=NN1C(=O)CC2(C(=O)N(Cc3ccc(Br)cc3F)C(=O)c3ccccc32)C1=O (stereo not shown) [2-[(4-bromo-2-fluorophenyl)methyl]-1'-[(1-methylethylidene)amino]spiro[isoquinoline-4(1H),3'-pyrrolidine]-1,2',3,5'(2H)-tetrone]
% Lowering Galactitol Accumulation In Vivo, % (D) (dulcitol accumulation; 0.9 mg/kg/day): 66% | % Lowering Galactitol Accumulation In Vivo, % (D) (dulcitol accumulation; 10.8 mg/kg/day): 86% | % Lowering Galactitol Accumulation In Vivo, % (D) (dulcitol accumulation; 56 mg/kg/day): 95% | % Lowering Galactitol Accumulation In Vivo, % (L) (dulcitol accumulation; 10.8 mg/kg/day): 30% | % Lowering Galactitol Accumulation In Vivo, % (L) (dulcitol accumulation; 56 mg/kg/day): 53%
